Converted amounts (≈) assume the structure as drawn.
Experiments:
[1] = system: Staphylococcus aureus NRS2 (ATCC700698); experiment: MIC panel of challenge pathogens (CLSI); format: cell-based; details: Staphylococcus aureus NRS2 (ATCC700698); for MIC: read-out: 100% inhibition; for MIC50: read-out: MIC50 (50%); for MIC80: read-out: MIC80 (80%)
Method: (§1) The inocula for each bacterial strain were prepared by picking 5-10 distinct colonies from the culture plates and suspending them in the appropriate broth as per Clinical and Laboratory Standards Institute (CLSI) guidelines M07-A8, M24-A or M11-A7 as appropriate. The inoculum was resuspended by vigorous shaking on a vortex mixer for 15 s. The turbidity was then adjusted to McFarland standard 0.5 ([…]). The inoculum was further diluted in the appropriate media for MIC tests to give a final inoculum in each well of 2-8×10^5 CFU/ml. MICs were tested in the appropriate broth in accordance with the appropriate CLSI guidelines.
(§2) A stock solution of each compound was prepared at a concentration of 1.28 g/L in DMSO. The stock was further diluted in the appropriate media to give a top starting concentration of 128 mg/L in the assay. 100 μL of the appropriate media, as per CLSI guidelines, was dispensed into each well in columns 2-12. 200 μL of the each compound solution (at 256 mg/L) was dispensed into each well in column 1. 100 μL aliquots were pipetted from column 1 wells and dispensed into column 2 with a multichannel pipette (±2% coefficient of variation) thus diluting two-fold. 100 μL samples were then pipetted from column 2 wells and dispensed into column 3. The process was repeated through to column 10. The final 100 μL of diluted drug from column 10 was then discarded. Row 11 acted as a positive control (no compound, but organisms added), Row 12 acted as a negative control (no compound, and no organisms added).
(§3) 100 μL of the appropriate inoculum suspension in the appropriate media, as per CLSI guidelines, was added to the appropriate wells. […] All plates were incubated in the dark under aerobic or anaerobic conditions at 30-37° C. for 24-48 hours, according to the appropriate CLSI guideline. Plates were read visually 24-48 hours post inoculation. Endpoints of 100% inhibition were determined (CLSI interpretation endpoints following visual examination).
(§4) MIC50, MIC80, and 100% inhibition results are reported below in μg/mL in the following Tables, indicating each compound tested against a given species and strain: […]

[2] = system: Staphylococcus aureus EUP MRSA004; experiment: MIC panel of challenge pathogens (CLSI); format: cell-based; details: Staphylococcus aureus EUP MRSA004; for MIC / MIC50 / MIC80: EUPMRSA004; for MIC: read-out: 100% inhibition; for MIC50: read-out: MIC50 (50%); for MIC80: read-out: MIC80 (80%)
Method: as §1, §2, §3, §4

[3] = system: Staphylococcus aureus AUR131 007035; experiment: MIC panel of challenge pathogens (CLSI); format: cell-based; details: Staphylococcus aureus AUR131 007035; for MIC / MIC50 / MIC80: AUR131007035; for MIC: read-out: 100% inhibition; for MIC50: read-out: MIC50 (50%); for MIC80: read-out: MIC80 (80%)
Method: as §1, §2, §3, §4

[4] = system: Staphylococcus aureus EUP SAU040; experiment: MIC panel of challenge pathogens (CLSI); format: cell-based; details: Staphylococcus aureus EUP SAU040; for MIC / MIC50 / MIC80: EUPSAU040; for MIC: read-out: 100% inhibition; for MIC50: read-out: MIC50 (50%); for MIC80: read-out: MIC80 (80%)
Method: as §1, §2, §3, §4

[5] = system: Staphylococcus aureus AUR58 7005; experiment: MIC panel of challenge pathogens (CLSI); format: cell-based; details: Staphylococcus aureus AUR58 7005; for MIC / MIC50 / MIC80: AUR587005; for MIC: read-out: 100% inhibition; for MIC50: read-out: MIC50 (50%); for MIC80: read-out: MIC80 (80%)
Method: as §1, §2, §3, §4

[6] = system: Staphylococcus aureus NRS384; experiment: MIC panel of challenge pathogens (CLSI); format: cell-based; details: Staphylococcus aureus NRS384; for MIC: read-out: 100% inhibition; for MIC50: read-out: MIC50 (50%); for MIC80: read-out: MIC80 (80%)
Method: as §1, §2, §3, §4

[7] = system: Staphylococcus aureus NRS382; experiment: MIC panel of challenge pathogens (CLSI); format: cell-based; details: Staphylococcus aureus NRS382; for MIC: read-out: 100% inhibition; for MIC50: read-out: MIC50 (50%); for MIC80: read-out: MIC80 (80%)
Method: as §1, §2, §3, §4

[8] = system: Staphylococcus aureus NRS383; experiment: MIC panel of challenge pathogens (CLSI); format: cell-based; details: Staphylococcus aureus NRS383; for MIC: read-out: 100% inhibition; for MIC50: read-out: MIC50 (50%); for MIC80: read-out: MIC80 (80%)
Method: as §1, §2, §3, §4

[9] = system: Enterococcus faecalis ATCC51299; experiment: MIC panel of challenge pathogens (CLSI); format: cell-based; details: Enterococcus faecalis ATCC51299; for MIC: read-out: 100% inhibition; for MIC50: read-out: MIC50 (50%); for MIC80: read-out: MIC80 (80%)
Method: as §1, §2, §3, §4

[10] = system: Methicillin-Resistant Staph. aureus (MRSA); experiment: MIC, NCCLS M7-A6 broth microdilution, MRSA; format: cell-based; details: 16 to 20 h, 35 degrees Celsius; for MIC: Staphylococcus aureus, MRSA
In short: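 Broth microdilution per NCCLS M7-A6 in cation-adjusted Mueller-Hinton broth, doubling dilutions, inoculum 5×10^5 CFU/mL, DMSO controls included. Read after 16–20 h at 35 °C in ambient air; MIC is lowest concentration preventing visible growth.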

AcpS enzyme = AcpS enzyme (Escherichia coli, UniProt P24224); experiment: Measurement of AcpS inhibition ([3H]acetyl-CoA incorporation into apo-ACP); format: biochemical; details: % activity vs blank-subtracted counts
Chain of AcpS enzyme (P24224 whole entry): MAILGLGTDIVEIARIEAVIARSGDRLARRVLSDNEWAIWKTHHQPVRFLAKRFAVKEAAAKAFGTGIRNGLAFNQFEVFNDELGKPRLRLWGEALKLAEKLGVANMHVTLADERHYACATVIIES
In short: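 Acetyl transfer from [3H]acetyl-CoA (labelled stock mixed with unlabelled acetyl-CoA) onto apo-ACP by E. coli AcpS at RT, started with substrate; aliquots TCA-precipitated at time points up to 60 min. Pellet radioactivity by scintillation; results as % activity of blank-subtracted substrate counts.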

## Cc1ccc(-c2cc(-c3nn[nH]n3)cc(-c3ccccc3-c3ccccc3)c2)c2ccccc12 [DNM0474]
[1]
  100% inhibition: 0.5 µg/mL
  MIC50 (50%): 0.5 µg/mL (≈ 1.14 µM)
  MIC80 (80%): 0.5 µg/mL (≈ 1.14 µM)
[2]
  100% inhibition: 0.5 µg/mL
  MIC50 (50%): 0.5 µg/mL (≈ 1.14 µM)
  MIC80 (80%): 0.5 µg/mL (≈ 1.14 µM)
[3]
  100% inhibition: 0.5 µg/mL
  MIC50 (50%): 0.5 µg/mL (≈ 1.14 µM)
  MIC80 (80%): 0.5 µg/mL (≈ 1.14 µM)
[4]
  100% inhibition: 0.25 µg/mL
  MIC50 (50%): 0.5 µg/mL (≈ 1.14 µM)
  MIC80 (80%): 0.5 µg/mL (≈ 1.14 µM)
[5]
  100% inhibition: 1 µg/mL
  MIC50 (50%): 0.5 µg/mL (≈ 1.14 µM)
  MIC80 (80%): 1 µg/mL (≈ 2.28 µM)
[6]
  100% inhibition: 0.5 µg/mL
  MIC50 (50%): 0.5 µg/mL (≈ 1.14 µM)
  MIC80 (80%): 0.5 µg/mL (≈ 1.14 µM)
[7]
  100% inhibition: 0.5 µg/mL
  MIC50 (50%): 0.5 µg/mL (≈ 1.14 µM)
  MIC80 (80%): 0.5 µg/mL (≈ 1.14 µM)
[8]
  100% inhibition: 0.5 µg/mL
  MIC50 (50%): 0.5 µg/mL (≈ 1.14 µM)
  MIC80 (80%): 0.5 µg/mL (≈ 1.14 µM)
[9]
  100% inhibition: 1 µg/mL
  MIC50 (50%): 1 µg/mL (≈ 2.28 µM)
  MIC80 (80%): 1 µg/mL (≈ 2.28 µM)
[10]
  MIC MRSA: 2 µM (≈ 0.877 µg/mL)
AcpS enzyme; test compound 50 uM
  % AcpS activity at 50 uM: 15.08%
AcpS enzyme; test compound 500 uM
  % AcpS activity @ 500 uM: 0.3%

## Clc1ccc(-c2cc(-c3nnn[nH]3)sc2-c2ccc(Cl)cc2)cc1 [DNM0487, 5-(4,5-Bis(4-chlorophenyl)thiophen-2-yl)-1H-tetrazole]
[1]
  MIC: 2 µg/mL (≈ 5.36 µM)
  MIC50: 1 µg/mL (≈ 2.68 µM)
  MIC80: 2 µg/mL (≈ 5.36 µM)
[2]
  MIC: 2 µg/mL (≈ 5.36 µM)
  MIC50: 1 µg/mL (≈ 2.68 µM)
  MIC80: 2 µg/mL (≈ 5.36 µM)
[3]
  MIC: 1 µg/mL (≈ 2.68 µM)
  MIC50: 1 µg/mL (≈ 2.68 µM)
  MIC80: 1 µg/mL (≈ 2.68 µM)
[4]
  MIC: 2 µg/mL (≈ 5.36 µM)
  MIC50: 1 µg/mL (≈ 2.68 µM)
  MIC80: 1 µg/mL (≈ 2.68 µM)
[5]
  MIC: 1 µg/mL (≈ 2.68 µM)
  MIC50: 1 µg/mL (≈ 2.68 µM)
  MIC80: 1 µg/mL (≈ 2.68 µM)
[6]
  MIC: 1 µg/mL (≈ 2.68 µM)
  MIC50: 1 µg/mL (≈ 2.68 µM)
  MIC80: 1 µg/mL (≈ 2.68 µM)
[7]
  MIC: 1 µg/mL (≈ 2.68 µM)
  MIC50: 1 µg/mL (≈ 2.68 µM)
  MIC80: 1 µg/mL (≈ 2.68 µM)
[8]
  MIC: 1 µg/mL (≈ 2.68 µM)
  MIC50: 1 µg/mL (≈ 2.68 µM)
  MIC80: 1 µg/mL (≈ 2.68 µM)
[9]
  MIC: 2 µg/mL (≈ 5.36 µM)
  MIC50: 1 µg/mL (≈ 2.68 µM)
  MIC80: 2 µg/mL (≈ 5.36 µM)
[10]
  MIC: 8 µM (≈ 2.99 µg/mL)
AcpS enzyme; test compound 50 uM
  activity at 50 µM: 3.34%
AcpS enzyme; test compound 500 uM
  remaining activity at 500 µM: 0.08%

## Cc1cc(Cl)ccc1-c1cc(-c2nnn[nH]2)sc1-c1ccc(Cl)cc1C [DNM0488, 5-(4,5-Bis(4-chloro-2-methylphenyl)thiophen-2-yl)-1H-tetrazole]
[1]
  MIC: 0.5 µg/mL (≈ 1.25 µM)
  MIC50: 0.5 µg/mL (≈ 1.25 µM)
  MIC80: 0.5 µg/mL (≈ 1.25 µM)
[2]
  MIC: 0.5 µg/mL (≈ 1.25 µM)
  MIC50: 0.5 µg/mL (≈ 1.25 µM)
  MIC80: 0.5 µg/mL (≈ 1.25 µM)
[3]
  MIC: 0.5 µg/mL (≈ 1.25 µM)
  MIC50: 0.5 µg/mL (≈ 1.25 µM)
  MIC80: 0.5 µg/mL (≈ 1.25 µM)
[4]
  MIC: 0.5 µg/mL (≈ 1.25 µM)
  MIC50: 0.5 µg/mL (≈ 1.25 µM)
  MIC80: 0.5 µg/mL (≈ 1.25 µM)
[5]
  MIC: 1 µg/mL (≈ 2.49 µM)
  MIC50: 0.5 µg/mL (≈ 1.25 µM)
  MIC80: 0.5 µg/mL (≈ 1.25 µM)
[6]
  MIC: 0.5 µg/mL (≈ 1.25 µM)
  MIC50: 0.5 µg/mL (≈ 1.25 µM)
  MIC80: 0.5 µg/mL (≈ 1.25 µM)
[7]
  MIC: 0.5 µg/mL (≈ 1.25 µM)
  MIC50: 0.5 µg/mL (≈ 1.25 µM)
  MIC80: 0.5 µg/mL (≈ 1.25 µM)
[8]
  MIC: 0.5 µg/mL (≈ 1.25 µM)
  MIC50: 0.5 µg/mL (≈ 1.25 µM)
  MIC80: 0.5 µg/mL (≈ 1.25 µM)
[9]
  MIC: 0.5 µg/mL (≈ 1.25 µM)
  MIC50: 0.5 µg/mL (≈ 1.25 µM)
  MIC80: 0.5 µg/mL (≈ 1.25 µM)
[10]
  MIC: 4 µM (≈ 1.61 µg/mL)
AcpS enzyme; test compound 50 uM
  activity at 50 µM: 11.5%
AcpS enzyme; test compound 500 uM
  remaining activity at 500 µM: 0.32%
